Experimental data published in patent publication US20210330603A1 (priority 2020, published 2021).

Key:
[1] = system: EHEC; test: Western blots of secreted translocon components EspA and EspB, EHEC (LEE-encoded T3SS activity); assay type: cell-based, Escherichia coli O157:H7
[2] = system: EHEC; test: Growth curves of EHEC in the presence of AA and AG (FIG. 22); assay type: cell-based, Escherichia coli; conditions: concentrations of 80 and 160 μM
Text: (§1) FIG. 22. Growth curves for Staphylococcus aureus (left side graphs) and EHEC (right side graphs) in the presence of AA (top graphs) and AG (bottom graphs).
(§2) Some lipids are antimicrobial with respect to certain bacteria.

[3] = system: EHEC; assay type: cell-based, Escherichia coli O157:H7
[4] = system: EHEC; assay type: cell-based, Escherichia coli O157:H7; remark: listed apart in the source
[5] = system: C. rodentium; assay type: cell-based, Citrobacter rodentium
[6] = system: C. rodentium; test: Western blots of secreted translocon components EspA and EspB, C. rodentium; assay type: cell-based, Citrobacter rodentium; conditions: physiological concentrations of 2-AG, late-log phase
[7] = system: EHEC; test: Western blots of lysate-associated EspA, EspB and Tir in EHEC; assay type: cell-based, Escherichia coli O157:H7; conditions: late-log phase
[8] = system: EHEC; test: Growth kinetics of EHEC under LEE-inducing conditions (FIG. 11); assay type: cell-based, Escherichia coli O157:H7; conditions: 10 μM 2-AG, microaerobic, DMEM-low glucose
[9] = system: C. rodentium; test: Growth kinetics of C. rodentium under LEE-inducing conditions (FIG. 11); assay type: cell-based, Citrobacter rodentium; conditions: 10 μM 2-AG, microaerobic, DMEM-low glucose
[10] = system: EHEC; test: Fluorescent actin staining (FAS) assay, EHEC pedestal formation on HeLa cells; assay type: cell-based, Escherichia coli O157:H7; conditions: EHEC treated with 10 μM 2-AG prior to infection of HeLa cells
[11] = system: S. Typhimurium; test: Targeted qPCR of SPI-1 genes in S. Typhimurium; assay type: cell-based, Salmonella enterica serovar Typhimurium; conditions: 10 μM 2-AG, SPI-1-inducing conditions, late-log phase
[12] = system: S. Typhimurium; test: SipA secretion by S. Typhimurium under SPI-1-inducing conditions; assay type: cell-based, Salmonella enterica serovar Typhimurium; conditions: 10 μM 2-AG
[13] = system: S. Typhimurium; test: Epithelial invasion assay, S. Typhimurium on HeLa cells; assay type: cell-based, Salmonella enterica serovar Typhimurium; conditions: ST treated with 10 μM 2-AG prior to infection of HeLa cells
[14] = system: S. Typhimurium; test: Growth curves of S. Typhimurium under SPI-1-inducing conditions; assay type: cell-based, Salmonella enterica serovar Typhimurium; conditions: 10 μM 2-AG
[15] = system: S. Typhimurium; test: Transcript levels of SPI-2 genes in S. Typhimurium; assay type: cell-based, Salmonella enterica serovar Typhimurium; conditions: 10 μM 2-AG, SPI-2-inducing conditions, 3 hours
[16] = system: S. Typhimurium; test: Macrophage infection, intramacrophagic survival of S. Typhimurium in J774.1 murine macrophages; assay type: cell-based, Salmonella enterica serovar Typhimurium
[17] = target: T1, QseC (Escherichia coli O157:H7, UniProt Q8X524); test: Autophosphorylation of QseC in liposomes; assay type: biochemical
T1 construct: Myc (C); His (C); made in house; host or cells: E. coli BL21(DE3) (printed 'B121 DE3'), arabinose induction, Ni-NTA purification

[18] = target: T2, CpxA (Escherichia coli O157:H7, UniProt P0AE84); test: Autophosphorylation of CpxA in liposomes; assay type: biochemical; conditions: 10 μM 2-AG, 120 seconds or 10 minutes
T2 construct: made in house; host or cells: E. coli BL21(DE3) (printed 'B121 DE3'), IPTG induction, Ni-NTA purification
T2 sequence (P0AE84 1-457): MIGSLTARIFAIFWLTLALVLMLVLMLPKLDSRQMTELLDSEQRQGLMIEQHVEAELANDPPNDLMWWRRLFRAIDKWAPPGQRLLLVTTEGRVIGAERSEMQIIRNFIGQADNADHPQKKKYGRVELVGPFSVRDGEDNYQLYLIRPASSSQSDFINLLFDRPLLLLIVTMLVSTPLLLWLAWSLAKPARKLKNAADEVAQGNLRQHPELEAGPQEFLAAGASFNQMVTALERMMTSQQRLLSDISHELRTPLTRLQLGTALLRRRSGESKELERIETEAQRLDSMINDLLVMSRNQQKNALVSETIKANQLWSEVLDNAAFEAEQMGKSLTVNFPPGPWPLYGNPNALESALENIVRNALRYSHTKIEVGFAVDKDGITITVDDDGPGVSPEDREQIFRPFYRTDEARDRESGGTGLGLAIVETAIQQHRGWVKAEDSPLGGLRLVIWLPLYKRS

[19] = system: FusK; test: qRT-PCR of LEE-encoded tir in EHEC ΔfusK; assay type: cell-based, Escherichia coli O157:H7; conditions: 20 μM 2-AG, aerobic
[20] = system: Staphylococcus aureus; test: Growth curves of Staphylococcus aureus in the presence of AA and AG (FIG. 22); assay type: cell-based
Text: as §1, §2

[21] = system: EHEC strain 86-24; test: qPCR of espA in EHEC grown in LG-DMEM with CBD; assay type: cell-based, Escherichia coli O157:H7
[22] = system: EHEC 86-24; test: EspA immunoblot of EHEC grown with CBD; assay type: cell-based, Escherichia coli O157:H7; conditions: 50 μM CBD
[23] = system: EHEC 86-24; test: Growth rate and growth yield of EHEC with CBD; assay type: cell-based, Escherichia coli O157:H7
[24] = system: Citrobacter rodentium; test: Cannabidiol treatment of C. rodentium infected mice (fecal colony counts); assay type: in vivo, mouse; conditions: single dose one-day post-infection
[25] = system: C. rodentium; test: Pharmacological inhibition of MgI in C. rodentium infected mice (FIG. 23); assay type: in vivo, mouse
[26] = physiological concentrations of 2-AG, late-log phase

T1 sequence (Q8X524 whole entry): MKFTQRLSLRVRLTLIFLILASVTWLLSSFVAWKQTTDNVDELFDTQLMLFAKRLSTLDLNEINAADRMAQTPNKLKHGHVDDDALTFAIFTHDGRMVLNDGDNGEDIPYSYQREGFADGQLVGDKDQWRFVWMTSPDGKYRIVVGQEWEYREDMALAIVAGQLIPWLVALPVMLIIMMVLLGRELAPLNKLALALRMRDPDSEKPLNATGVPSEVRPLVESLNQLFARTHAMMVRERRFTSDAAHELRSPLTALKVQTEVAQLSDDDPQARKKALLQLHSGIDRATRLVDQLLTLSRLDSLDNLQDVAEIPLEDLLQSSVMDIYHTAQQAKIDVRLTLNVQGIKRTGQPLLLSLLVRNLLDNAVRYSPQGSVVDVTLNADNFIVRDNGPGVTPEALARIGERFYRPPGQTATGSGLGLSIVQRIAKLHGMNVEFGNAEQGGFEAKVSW

Structure (SMILES): CCCCC/C=C\C/C=C\C/C=C\C/C=C\CCCC(=O)OC[C@@H](O)CO [1-AG, reference compound]
- LEE-encoded T3SS activity (EspA and EspB secretion) ([1]; 1-AG in contrast to 2-AG, late-log phase): does not attenuate LEE-encoded T3SS activity

Structure (SMILES): CCCCC/C=C\C/C=C\C/C=C\C/C=C\CCCC(=O)OC(CO)CO [2-AG, 2-arachidonoyl-glycerol]
- growth of EHEC [2]: does not inhibit growth
- differentially expressed KEGG pathways (RNAseq) [3]: significantly altered the expression four KEGG pathways
- expression of LEE-encoded genes (RNAseq) [3]: significant downregulation of numerous LEE-encoded genes
- non-LEE encoded genes differentially expressed (RNAseq) [3]: few non-LEE encoded genes were differentially expressed
- LEE transcription, targeted qPCR of LEE-encoded genes spanning its five operons [4]: inhibitory effects of 2-AG on LEE transcription were confirmed
- transcription of Shiga toxin (stx2a) [4]: no transcriptional effect
- expression of LEE-encoded genes in C. rodentium [5]: decreased expression of LEE-encoded genes
- LEE activity in isogenic fadL mutant ([1]; EHEC ΔfadL, 10 μM 2-AG): no longer inhibited
- EspA secretion, EHEC [1, 26]: significantly reduced
- EspB secretion, EHEC [1, 26]: significantly reduced
- LEE functional activity in the qseC mutant in EHEC ([1]; qseC isogenic mutant, 10 μM 2-AG): not affected
- EspA secretion, C. rodentium [6]: significantly reduced
- EspB secretion, C. rodentium [6]: significantly reduced
- protein expression of EspA in EHEC lysates [7]: significantly decreased
- protein expression of EspB in EHEC lysates [7]: significantly decreased
- protein expression of Tir in EHEC lysates [7]: significantly decreased
- growth of EHEC [8]: did not correspond with altered growth
- growth of C. rodentium [9]: did not correspond with altered growth
- pedestal formation on epithelial cells (A/E lesion formation) [10]: decreased pedestal formation
- expression of hilD [11]: inhibits expression
- expression of sipA [11]: inhibits expression
- expression of sopB [11]: inhibits expression
- secretion of SipA [12]: decreased secretion of SipA
- epithelial invasiveness [13]: attenuated epithelial invasiveness
- S. Typhimurium growth kinetics [14]: did not alter
- expression of ssaV [15]: decreased expression
- expression of sseF [15]: decreased expression
- survival within macrophages [16]: decreased survival within macrophages
- Epi-mediated activation of QseC ([17]; 6 μM 2-AG, 50 μM epinephrine, 30 minutes): inhibited Epi-mediated activation of QseC
- QseC activation (autophosphorylation) ([17]; QseC reconstituted into liposomes): significantly diminished
- activity of CpxA (autophosphorylation) [18]: did not inhibit
- activity of FusK [19]: did not inhibit

Structure (SMILES): Cc1c(C(=O)NN2CCCCC2)nn(-c2ccc(Cl)cc2Cl)c1-c1ccc(I)cc1 [AM251, reference compound]
- effect on 2-AG-mediated inhibition of QseC activity ([17]; 6 μM 2-AG and AM251, 30 minutes, liposome system): prevented 2-AG-mediated inhibition of QseC activity

Structure (SMILES): CCCCC/C=C\C/C=C\C/C=C\C/C=C\CCCC(=O)O [Arachidonic acid]
- growth of S. aureus [20]: inhibits the growth

Structure (SMILES): C=C(C)[C@@H]1CCC(C)=C[C@H]1c1c(O)cc(CCCCC)cc1O [CBD, cannabidiol]
- decrease in expression of espA compared to the vehicle ([21]; wt EHEC 86-24, 50 μM CBD): 20.6 fold
- reduction in expression of espA between the control and CBD ([21]; ΔqseC deletion strain, 50 μM CBD): 17.5 fold
- expression of EspA protein (immunoblot) [22]: reduced expression of EspA
- growth rate and growth yield [23]: neither the growth rate nor the growth yield for the wt and ΔqseC deletion strains were significantly altered
- ability of Citrobacter rodentium to colonize the intestines of mice [24]: inhibited the ability

Structure (SMILES): O=C(Oc1ccc([N+](=O)[O-])cc1)N1CCC(C(O)(c2ccc3c(c2)OCO3)c2ccc3c(c2)OCO3)CC1 [JZL184]
- colonization of cecum tissues by C. rodentium [25]: decreases colonization of cecum tissues

Structure (SMILES): CCCCC/C=C\C/C=C\C/C=C\C/C=C\CCCC(=O)NCCO [anandamide, reference compound]
- LEE activity (EspA and EspB secretion) ([1]; anandamide 100 or 200 nM, late-log phase): does not alter LEE activity
